The values below come from patent US20240026461A1, “BCL10 MUTATIONS AS BIOMARKERS FOR TARGETED THERAPY IN B CELL LYMPHOMAS” (priority 2022, published 2024).

One assay has as its system HBL1^R58Q. Kind of assay: Growth inhibition assay (CellTiter Glo), HBL1 cells expressing BCL10 R58Q. In kind it is cell-based. Particulars: Homo sapiens, 96 h, read-out: IC50, growth inhibition, MALT1 inhibitors. The protocol:
DLBCL cell lines were cultured in exponential condition and the cell growth was determined by CellTiter Glo (Promega). 3000-5000 cells were seeded and cultured in each well of 384 well plate for 96 h and treated with compounds every 48 h. Luminescence was read at the endpoint with the Synergy NEO microplate reader (BioTek). The value of compound treated cells was normalized to their vehicle treated controls and then used to calculate IC50 in GraphPad Prism (RRID:SCR_002798).
Given the distinct functional profiles, CARD11 dependencies, and MALT1 activation effects of the BCL10 CARD and truncation mutants, the inventors designed experiments to evaluate whether, and to what extent, these mutant BCL10 proteins might confer BTK inhibitor resistance. Isogenic ABC-DLBCL cells expressing BCL10WT, BCL10^R58Q and BCL10^E140X proteins were treated with escalating doses of three chemically distinct covalent BTK inhibitors: ibrutinib, acalabrutinib, or zanubrutinib. The cellular proliferation rates of the treated cells were measured using an ATP fluorescence assay after 96 hours of drug exposure.
Isogenic BCL10^WT, BCL10^R58Q and BCL10^E140X ABC-DLBCLs were exposed to increasing concentrations of each of these compounds for 96 hours.

Assay [1] concerns BCL10^E140X ABC-DLBCL xenografts. As to the kind of experiment: Xenograft, JNJ-67690246 treatment, BCL10^E140X tumors. In kind it is in vivo, mice. Particulars: OCI-Ly10 cell line, p.o. 100 mg/kg twice per day. From the text: FIG. 7A-7K illustrate that subjects with BCL10 truncating mutant lymphomas are hypersensitive to MALT1 protease inhibitors. FIG. 7A graphically illustrates growth inhibition of human diffuse large B-cell lymphoma (HBL1) cells and OCI-Ly10 lymphoma cells expressing wild type or mutant BCL10 proteins in response to MALT1 inhibitor C3. X axis, concentration of compound (M); Y axis, inhibition of cell growth normalized to vehicle treated cells. **p<0.01; ***p<0.001; ****p<0.0001; ns, not significant. […] FIG. 7D graphically illustrates luciferase activity measured in the MALT1 GloSensor reporter cell lines treated with MALT1 inhibitor C3. […] FIG. 7E graphically illustrates luciferase activity measured in the MALT1 GloSensor reporter cell lines treated with MALT1 inhibitor MLT-748. […] FIG. 7F graphically illustrates luciferase activity measured in the MALT1 GloSensor reporter cell lines treated with MALT1 inhibitor JNJ-67690246. […] AUC was calculated with Prism. *p<0.05. FIG. 7J graphically illustrates tumor weight measured at the endpoint of the studies described in FIG. 7G-7I. *p<0.05.
All mice experiments were approved by Institutional Animal Care & Use Committee (IACUC) at Weill Cornell Medicine and were performed following the IACUC guidelines. […] Tumor volume was monitored 2˜3 times/week with digital caliper and calculated using the following formula. smallest diameter^2×largest diameter×0.5. […]

`Cc1nc(-n2nccn2)c(Cl)cc1NC(=O)c1cnn(-c2cccc3c(=O)[nH]ccc23)c1C(F)(F)F` [JNJ-67690246]: in the assay on HBL1^R58Q, the IC50 (commonly the concentration at which inhibition is half-maximal) stood at 5.77 ± 3.02 µM. The “growth of lymphoma xenografts” value in assay [1] was “significant reduction in growth”.
